Measurements: patent publication US4530714A, “N-aliphatic and N,N-aliphatic phosphoric triamide urease inhibitors and urease inhibited urea based fertilizer compositions” (Allied Corporation, priority 1984, dated 1985)

Key:
[1] = tested on: urease; test: Long term urease inhibition, inhibited Cazenovia soil preincubated or left open 11 days before urea application; type: biochemical; details: 200 micrograms compound; for % Inhibition, Preincubated for 11 days Open: allowed to volatilize for 11 days prior to urea application; for % Inhibition, Preincubated for 11 days at 25° C.: inhibited soil incubated 11 days at 25° C. prior to urea application; for % Inhibition, Preincubated for 11 days at 35° C.: inhibited soil incubated 11 days at 35° C. prior to urea application
Procedure: (§1) Efficacy tests were conducted to evaluate the efficacy of certain representative phosphoric triamide compounds as urease inhibitors. The inhibition tests were run in a New York soil (Cazenovia silt loam, pH 7.0 or 7.3) or in a Wisconsin Soil (Plano silt loam, pH 5.3). Evaluations (run in triplicate) consisted of applying 800 micrograms of the test compound in 5 mL of water and 42.8 mg of urea in 1 mL of water to 20 g of air-dry soil in a glass bottle. The bottle was capped with perforated aluminum foil and incubated at 25° C. for three days prior to extraction with 100 mL of a 2M potassium chloride solution containing 0.5 mg of phenylmercuric acetate. The extracts were then analyzed for remaining urea using an autoanalyzer. Percent inhibition was calculated as
(§2) % Inhibition=[1-(A-B/A-C)]×100%
(§3) where A is urea recovered from unincubated sample (urea added to soil and immediately extracted); B is urea recovered from inhibited sample; and C is urea recovered from the control (uninhibited sample).
The percent inhibition observed, as determined by the means described in Example XVI except using 200 micrograms of the test compound, are set forth in Table II

[2] = tested on: urease; test: Soil urease inhibition efficacy test, Cazenovia silt loam (New York soil); type: biochemical; details: 25° C., three days; for % Inhibition Cazenovian pH 7.0: Cazenovia silt loam pH 7.0, 200 micrograms compound per 20 g soil; for % Inhibition Cazenovian pH 7.3: Cazenovia silt loam pH 7.3, 800 micrograms compound and 42.8 mg urea per 20 g soil
Procedure: as §1, with “Evaluations (run in triplicate) consisted of applying 800 micrograms of the test compound in 5 mL of water and 42.8 mg of urea in 1 mL of water to 20 g of air-dry soil in a glass bottle.” left out
as §2, §3

[3] = tested on: urease; test: Soil urease inhibition efficacy test, Plano silt loam (Wisconsin soil); type: biochemical; details: Plano silt loam pH 5.3, 25° C., three days
Procedure: as §1, with “Evaluations (run in triplicate) consisted of applying 800 micrograms of the test compound in 5 mL of water and 42.8 mg of urea in 1 mL of water to 20 g of air-dry soil in a glass bottle.” left out
as §2, §3

[4] = tested on: urease; test: Percent inhibition versus time in soil (FIG. 1, FIG. 2); type: biochemical; details: soil at 25° C. (FIG. 1) and 35° C. (FIG. 2); compared with phenyl phosphorodiamidate
Procedure: FIG. 1 is a plot of percent inhibition versus time in soils at 25° C. for N,N-diethylphosphorictriamide, a urease inhibitor useful in the practice of this invention, and for the known urease inhibitor, phenyl phosphorodiamidate, and FIG. 2 is a plot of percent inhibition versus time in soil at 35° C. for the same compounds.

[5] = Solubility in water (as needed for efficacy test); type: physicochemical; details: efficacy test application
[6] = 200 micrograms compound per 20 g soil
[7] = 800 micrograms compound and 42.8 mg urea per 20 g soil

Question: Which “% Inhibition, Preincubated for 11 days Open” value [1] does the source give for NP(N)(=O)Oc1ccccc1 [Phenyl Phosphorodiamidate, phenyl phosphorodiamidate, reference compound] here?
Answer: 50%

Question: What about the “% Inhibition, Preincubated for 11 days at 25° C.” value (from here on “% Inhibition … at 25° C.”) [1] of the same molecule?
Answer: 26%

Question: And the “% Inhibition, Preincubated for 11 days at 35° C.” value (shortened to “% Inhibition … at 35° C.”) [1]?
Answer: 16%

Question: And the “% Inhibition, No Preincubation” value [1]?
Answer: 76%

Question: With CCC(C)NP(N)(N)=S (stereo not shown) [Compound 20, N-(sec-Butyl)thiophosphoric Triamide] as the molecule, how does the “% Inhibition Cazenovian pH 7.0” value [2] read?
Answer: 65%

Question: And the “% Inhibition Wisconsin pH 5.3” value [3, 6]?
Answer: 51%

Question: What does the source list for CCCCCCCCNP(N)(N)=O [Compound 12, N-(n-Octyl)phosphoric Triamide]?
Answer: % Inhibition Cazenovian pH 7.3 [2]: 98%; % Inhibition Wisconsin pH 5.3 [3, 7]: 51%; % Inhibition, Preincubated for 11 days Open [1]: 66%; % Inhibition, Preincubated for 11 days at 25° C. [1]: 39%; % Inhibition, Preincubated for 11 days at 35° C. [1]: 36%; % Inhibition, No Preincubation [1]: 95%

Question: Which results are given for NP(N)(=S)N1CCCC1 [Compound 19, N-(Diaminothiophosphinyl)pyrrolidine]?
Answer: % Inhibition Cazenovian pH 7.0 [2]: 77%; % Inhibition Wisconsin pH 5.3 [3, 6]: 23%

Question: For CCN(CC)P(N)(N)=O [Compound 1, N,N-Diethylphosphoric Triamide], which “% Inhibition Cazenovian pH 7.3” value [2] is on record?
Answer: 94%

Question: What about the “duration of the urease inhibiting activity” value [4] of the same molecule?
Answer: much superior

Question: What does the source list for CCCCCCNP(N)(N)=S [Compound 18, N-(n-Hexyl)thiophosphoric Triamide]?
Answer: % Inhibition Cazenovian pH 7.0 [2]: 97%; % Inhibition Wisconsin pH 5.3 [3, 6]: 52%

Question: With CC(C)N(C(C)C)P(N)(N)=S [Compound 21, N,N-Diisopropylthiophosphoric Triamide] as the molecule, how does the solubility in water [5] read?
Answer: too insoluble in water to obtain significant data

Question: With CCCCNP(N)(N)=O [Compound 9, N-(n-Butyl)phosphoric Triamide] as the molecule, how does the “% Inhibition Cazenovian pH 7.3” value [2] read?
Answer: 99%

Question: What about the “% Inhibition Wisconsin pH 5.3” value [3, 7] of the same molecule?
Answer: 52%

Question: And the “% Inhibition, Preincubated for 11 days Open” value [1]?
Answer: 78%

Question: What about the “% Inhibition … at 25° C.” value [1] of the same molecule?
Answer: 75%

Question: What about the “% Inhibition … at 35° C.” value [1] of the same molecule?
Answer: 68%

Question: What about the “% Inhibition, No Preincubation” value [1] of the same molecule?
Answer: 96%

Question: With CCCCN(CCCC)P(N)(N)=S [Compound 23, N,N-Di-(n-Butyl)thiophosphoric Triamide] as the molecule, how does the “% Inhibition Cazenovian pH 7.0” value [2] read?
Answer: 67%

Question: And the “% Inhibition Wisconsin pH 5.3” value [3, 6]?
Answer: 37%

Question: Which results are given for CCN(CC)P(N)(N)=S [Compound 14, N,N-Diethylthiophosphoric Triamide]?
Answer: % Inhibition Cazenovian pH 7.3 [2]: 61%; % Inhibition Wisconsin pH 5.3 [3, 7]: 53%

Question: For C=CCNP(N)(N)=O [Compound 3, N-Allylphosphoric Triamide], which “% Inhibition Cazenovian pH 7.3” value [2] is on record?
Answer: 93%

Question: With CN(Cc1ccccc1)P(N)(N)=O [Compound 4, N-Benzyl-N-methylphosphoric Triamide] as the molecule, how does the “% Inhibition Cazenovian pH 7.3” value [2] read?
Answer: 96%

Question: With CN(C)P(N)(N)=O [Compound 2, N,N-Dimethylphosphoric Triamide] as the molecule, how does the “% Inhibition Cazenovian pH 7.3” value [2] read?
Answer: 98%

Question: With CCCCNP(N)(N)=S [Compound 10, N-(n-Butyl)thiophosphoric Triamide] as the molecule, how does the “% Inhibition Cazenovian pH 7.3” value [2] read?
Answer: 98%

Question: And the “% Inhibition Wisconsin pH 5.3” value [3, 7]?
Answer: 95%

Question: And the “% Inhibition, Preincubated for 11 days Open” value [1]?
Answer: 94%

Question: And the “% Inhibition … at 25° C.” value [1]?
Answer: 98%

Question: What about the “% Inhibition … at 35° C.” value [1] of the same molecule?
Answer: 89%

Question: What about the “% Inhibition, No Preincubation” value [1] of the same molecule?
Answer: 90%

Question: With NP(N)(=O)NC1CCCCC1 [Compound 5, N-Cyclohexylphosphoric Triamide] as the molecule, how does the “% Inhibition Cazenovian pH 7.3” value [2] read?
Answer: 98%

Question: For NP(N)(=S)NC1CCCCC1 [Compound 17, N-Cyclohexylthiophosphoric Triamide], which “% Inhibition Cazenovian pH 7.0” value [2] is on record?
Answer: 84%

Question: And the “% Inhibition Wisconsin pH 5.3” value [3, 6]?
Answer: 58%

Question: Which “% Inhibition Cazenovian pH 7.3” value [2] does the source give for CCCCCCCCCCCCNP(N)(N)=O [Compound 13, N-(n-Dodecyl)phosphoric Triamide] here?
Answer: 81%

Question: And the “% Inhibition Wisconsin pH 5.3” value [3, 7]?
Answer: 28%

Question: For CN(C1CCCCC1)P(N)(N)=O [Compound 15, N-Cyclohexyl-N-methylphosphoric Triamide], which “% Inhibition Cazenovian pH 7.3” value [2] is on record?
Answer: 92%

Question: What about the “% Inhibition Wisconsin pH 5.3” value [3, 7] of the same molecule?
Answer: 48%

Question: What about the “% Inhibition, Preincubated for 11 days Open” value [1] of the same molecule?
Answer: 67%

Question: What about the “% Inhibition … at 25° C.” value [1] of the same molecule?
Answer: 78%

Question: And the “% Inhibition … at 35° C.” value [1]?
Answer: 78%

Question: What about the “% Inhibition, No Preincubation” value [1] of the same molecule?
Answer: 80%

Question: With NP(N)(=O)N1CCCCC1 [Compound 6, N-(Diaminophosphinyl)piperidine] as the molecule, how does the “% Inhibition Cazenovian pH 7.3” value [2] read?
Answer: 94%

Question: With CCNP(N)(N)=O [Compound 8, N-Ethylphosphoric Triamide] as the molecule, how does the “% Inhibition Cazenovian pH 7.3” value [2] read?
Answer: 99%

Question: What about the “% Inhibition Wisconsin pH 5.3” value [3, 7] of the same molecule?
Answer: 47%

Question: And the “% Inhibition, Preincubated for 11 days Open” value [1]?
Answer: 72%

Question: And the “% Inhibition … at 25° C.” value [1]?
Answer: 74%

Question: What about the “% Inhibition … at 35° C.” value [1] of the same molecule?
Answer: 55%

Question: And the “% Inhibition, No Preincubation” value [1]?
Answer: 95%

Question: With NP(N)(=S)N1CCCCC1 [Compound 22, N-(Diaminothiophosphinyl)piperidine] as the molecule, how does the “% Inhibition Cazenovian pH 7.0” value [2] read?
Answer: 66%

Question: And the “% Inhibition Wisconsin pH 5.3” value [3, 6]?
Answer: 0%

Question: For CN(Cc1ccccc1)P(N)(N)=S [Compound 16, N-Benzyl-N-methylthiophosphoric Triamide], which “% Inhibition Cazenovian pH 7.0” value [2] is on record?
Answer: 43%

Question: And the “% Inhibition Wisconsin pH 5.3” value [3, 6]?
Answer: 24%

Question: Which results are given for CCC(C)NP(N)(N)=O (stereo not shown) [Compound 11, N-(sec-Butyl)phosphoric Triamide]?
Answer: % Inhibition Cazenovian pH 7.3 [2]: 96%; % Inhibition Wisconsin pH 5.3 [3, 7]: 66%; % Inhibition, Preincubated for 11 days Open [1]: 77%; % Inhibition, Preincubated for 11 days at 25° C. [1]: 90%; % Inhibition, Preincubated for 11 days at 35° C. [1]: 85%; % Inhibition, No Preincubation [1]: 92%

Question: With CC(C)NP(N)(N)=O [Compound 7, N-Isopropylphosphoric Triamide] as the molecule, how does the “% Inhibition Cazenovian pH 7.3” value [2] read?
Answer: 97%
